Legend:
[1] = test system: NF-κB signaling pathway in BV-2 microglial cells; test: qPCR of NF-κB downstream genes after LPS; type: cell-based, murine; details: BV-2 cells, dose-dependent
Procedure: After cell lysis with RLT buffer (Qiagen), RNA was extracted using the RNAeasy PLUS Mini Kit (Qiagen; #74136). The resulting cDNA was generated using the AccuPower CycleScript RT PreMix (dT20) kit (Bioneer; K2044) on a C1000 Touch Thermal Cycler (Bio-Rad; #1841000). qPCR was performed using a KAPA SYBR® FAST qPCR Master Mix (2×) Universal Kit (Kapa; KK4605) on a StepOne Real-Time PCR system (Applied Biosystems; #4376357). The cycling threshold value of the endogenous control gene GAPDH was subtracted from the cycling threshold value of each target gene to calculate the shift in cycling threshold (ΔCT). […] The primer sequence information for this analysis is shown in Supplementary Table 3.
NF-κB is a central mediator that induces proinflammatory cytokines, including TNF-α, IL-1β, IL-6, and chemokines. […] The expression level of the proinflammatory cytokine TNF-α was also monitored with SB26019 treatment.
Fig. 2 SB26019 has anti-inflammatory activity via the accumulation of tubulin monomers. […]

[2] = test system: IκB in J774A.1 cells; test: Western blot of IκB; type: cell-based; details: murine macrophage cells; inhibited by MG132 pretreatment
Procedure: The proteome was analyzed by SDS‒PAGE and transferred to PVDF membranes (Bio-Rad; BR162-0177). The membranes were blocked with 2% BSA in Tris-buffered saline containing 0.1% Tween-20 (TBST) for 1 h. To detect the desired proteins, the membranes were incubated overnight at 4 °C with the primary antibodies—1:1000 dilution of α-tubulin (CST; #3873), β-tubulin (CST; #2146), IκB (CST; #4814), caspase-1 (CST; #24232), cleaved caspase-1 (CST; #89332), IL-1β (CST; #31202), cleaved IL-1β (CST; #63124), acetylated α-tubulin (CST; #5335), p65 (Abcam; ab16502), FLAG (Abcam; ab49763); and 1:2,000 dilution of GAPDH (CST; #2118), β-actin (CST; #4970), and LMNB1 (Abcam; ab16048). After washing with TBST, the resulting membranes were exposed to HRP-conjugated secondary antibody—1:5000 dilution of anti-rabbit (CST; #7074) and anti-mouse (CST; #7076)—for 1 h at room temperature. After washing with TBST, the membranes were incubated with an enhanced chemiluminescence (ECL) prime kit (Cytiva; RPN2232). Chemiluminescent signals from the desired proteins were detected using ChemiDoc. […]
To understand the inhibitory mechanism of p65 nuclear translocation by SB26019, the expression levels of p65, IκB, and tubulin monomers were monitored upon SB26019 treatment in murine macrophage cells. […] To test this hypothesis, we monitored protein‒protein interactions among p65, IκB, and tubulin with immunoprecipitation. […]

COc1ccc2c(c1O)OC(C)(C)C=C2c1cccc2c1oc1ccccc12 [Compound 8]
mRNA of inflammatory marker genes (Ccl2, Cxcl10, Il-1β, Il-6, Nos2, Tnf) [1]: suppressed the production of inflammatory marker genes | IκB degradation [2]: induced IκB degradation in a time- and dose-dependent manner

Source: article PMC9743128, “Phenotype-based screening rediscovered benzopyran-embedded microtubule inhibitors as anti-neuroinflammatory agents by modulating the tubulin–p65 interaction” (Experimental & Molecular Medicine, 2022)
